Data reported in patent US8536332B2, “Modulating signal transduction pathways with substituted pyridol [2,3-b] pyrazines” (Aeterna Zentaris GmbH, priority 2007, dated 2013).

Structure (SMILES)	melting point
COc1cc(-c2ccc3ncc(NC(=O)N[C@@H]4C[C@H]4c4ccccc4)nc3n2)ccc1O [Compound 603, 1-[6-(4-Hydroxy-3-methoxy-phenyl)-pyrido[2,3-b]pyrazin-3-yl]-3-((1R,2S)-2-phenyl-cyclopropyl)-urea]	233 to 236 °C
CCNC(=O)Nc1cnc2ccc(-c3ccc(Cl)cc3)nc2n1 [Compound 6, 1-[6-(4-Chloro-phenyl)-pyrido[2,3-b]pyrazin-3-yl]-3-ethyl-urea]	276 °C
CN(C)c1ccc(NC(=O)Nc2cnc3ccc(-c4cc(Cl)c(O)c(Cl)c4)nc3n2)cc1 [Compound 555, 1-[6-(3,5-Dichloro-4-hydroxy-phenyl)-pyrido[2,3-b]pyrazin-3-yl]-3-(4-dimethylamino-phenyl)-urea]	259 to 262 °C
Cc1noc(C)c1NC(=O)Nc1cnc2ccc(-c3cc(Cl)c(O)c(Cl)c3)nc2n1 [Compound 562, 1-[6-(3,5-Dichloro-4-hydroxy-phenyl)-pyrido[2,3-b]pyrazin-3-yl]-3-(3,5-dimethyl-isoxazol-4-yl)-urea]	257 to 260 °C
CCNC(=O)Nc1cnc2ccc(NCC3CC3)nc2n1 [Compound 231, 1-[6-(Cyclopropylmethyl-amino)-pyrido[2,3-b]pyrazin-3-yl]-3-ethyl-urea]	201 to 203 °C
CCNC(=O)Nc1ccc2ncc(-c3cccnc3OC(C)C)nc2n1 [Compound 51, 1-Ethyl-3-[3-(2-isopropoxy-pyridin-3-yl)-pyrido[2,3-b]pyrazin-6-yl]-urea]	231 to 232 °C
COc1cc(-c2ccc3ncc(NC(=O)Nc4ccnc(N5CCOCC5)c4)nc3n2)ccc1O [Compound 607, 1-[6-(4-Hydroxy-3-methoxy-phenyl)-pyrido[2,3-b]pyrazin-3-yl]-3-(2-morpholin-4-yl-pyridin-4-yl)-urea]	260 to 263 °C
COc1cc(-c2ccc3ncc(NC(=S)NC4CCCCC4)nc3n2)ccc1O [Compound 524, 1-Cyclohexyl-3-[6-(4-hydroxy-3-methoxy-phenyl)-pyrido[2,3-b]pyrazin-3-yl]-thiourea]	253 to 254 °C
C=CCNC(=O)Nc1cnc2ccc(-c3ccc(OC)c(OC)c3)nc2n1 [Compound 575, 1-Allyl-3-[6-(3,4-dimethoxy-phenyl)-pyrido[2,3-b]pyrazin-3-yl]-urea]	236 to 238 °C
CCNC(=O)Nc1cnc2ccc(N3CCC(O)CC3)nc2n1 [Compound 235, 1-Ethyl-3-[6-(4-hydroxy-piperidin-1-yl)-pyrido[2,3-b]pyrazin-3-yl]-urea]	249 to 251 °C
COc1cc(Nc2cnc3ccc(NC(=S)NCCN4CCCCC4)nc3n2)cc(OC)c1OC [Compound 700, 1-(2-Piperidin-1-yl-ethyl)-3-[3-(3,4,5-trimethoxy-phenylamino)-pyrido[2,3-b]pyrazin-6-yl]-thiourea]	206 °C
CCNC(=O)Nc1ccc2ncc(-c3cnn(Cc4ccccc4)c3)nc2n1 [Compound 58, 1-[3-(1-Benzyl-1H-pyrazol-4-yl)-pyrido[2,3-b]pyrazin-6-yl]-3-ethyl-urea]	258 to 261 °C
COc1cc(-c2ccc3ncc(NC(=O)Nc4ccc(F)cc4)nc3n2)ccc1O [Compound 600, 1-(4-Fluoro-phenyl)-3-[6-(4-hydroxy-3-methoxy-phenyl)-pyrido[2,3-b]pyrazin-3-yl]-urea]	244 to 246 °C
COc1cc(-c2ccc3ncc(NC(=O)Nc4ccc(N5C(=O)C=CC5=O)cc4)nc3n2)ccc1O [Compound 622, 1-[4-(2,5-Dioxo-2,5-dihydro-pyrrol-1-yl)-phenyl]-3-[6-(4-hydroxy-3-methoxy-phenyl)-pyrido[2,3-b]pyrazin-3-yl]-urea]	290 to 293 °C
CCNC(=O)Nc1ccc2ncc(-c3ccc(N(c4ccccc4)c4ccccc4)cc3)nc2n1 [Compound 128, 1-[3-(4-Diphenylamino-phenyl)-pyrido[2,3-b]pyrazin-6-yl]-3-ethyl-urea]	269 to 273 °C
COc1cc(-c2ccc3ncc(NC(=O)Nc4ccccc4[N+](=O)[O-])nc3n2)ccc1O [Compound 617, 1-[6-(4-Hydroxy-3-methoxy-phenyl)-pyrido[2,3-b]pyrazin-3-yl]-3-(2-nitro-phenyl)-urea]	220 to 222 °C
CCCCCCNC(=O)Nc1cnc2ccc(-c3ccc(O)c(OC)c3)nc2n1 [Compound 627, 1-Hexyl-3-[6-(4-hydroxy-3-methoxy-phenyl)-pyrido[2,3-b]pyrazin-3-yl]-urea]	234 to 235 °C
O=C(Nc1cnc2ccc(-c3cc(Cl)c(O)c(Cl)c3)nc2n1)NC1CCCCCCC1 [Compound 556, 1-Cyclooctyl-3-[6-(3,5-dichloro-4-hydroxy-phenyl)-pyrido[2,3-b]pyrazin-3-yl]-urea]	261 to 263 °C
CCNC(=O)Nc1ccc2ncc(-c3cc(C)c(OC)c(C)c3)nc2n1 [Compound 80, 1-Ethyl-3-[3-(4-methoxy-3,5-dimethyl-phenyl)-pyrido[2,3-b]pyrazin-6-yl]-urea]	255.3 to 258.2 °C
CCNc1ccc2ncc(Nc3cc(OC)c(OC)c(OC)c3)nc2n1 [Compound 733, N*6*-Ethyl-N*3*- (3,4,5-trimethoxy-phenyl)-pyrido[2,3-b]pyrazine-3,6-diamine]	110 °C

Further lines, results first:

melting point	Structure (SMILES)
243 °C	CCNC(=O)Nc1ccc2ncc(Nc3cccc(C(C)=O)c3)nc2n1 [Compound 170, 1-[3-(3-Acetyl-phenylamino)-pyrido[2,3-b]pyrazin-6-yl]-3-ethyl-urea]
229 to 231 °C	CCNC(=O)Nc1ccc2ncc(Nc3ccccc3)nc2n1 [Compound 64, 1-Ethyl-3-(3-phenylamino-pyrido-[2,3-b]pyrazin-6-yl)-urea]
222 °C	CCNC(=O)Nc1ccc2ncc(Nc3cc(C)c(O)cc3C)nc2n1 [Compound 446, 1-Ethyl-3-[3-(4-hydroxy-2,5-dimethyl-phenylamino)-pyrido[2,3-b]pyrazin-6-yl]-urea]
268 °C	CCNC(=S)Nc1ccc2ncc(Nc3ccc(C)c(NS(C)(=O)=O)c3)nc2n1 [Compound 165, N-{5-[6-(3-Ethyl-thioureido)-pyrido[2,3-b]pyrazin-3-ylamino]-2-methyl-phenyl}-methanesulfonamide]
294 °C	CCNC(=S)Nc1ccc2ncc(Nc3ccc(-n4cncn4)cc3)nc2n1 [Compound 164, 1-Ethyl-3-[3-(4-[1,2,4]triazol-1-yl-phenylamino)-pyrido[2,3-b]pyrazin-6-yl]-thiourea]
228 to 233 °C	CCNC(=O)Nc1ccc2ncc(-c3cc(C)c(C)c(C)c3)nc2n1 [Compound 151, 1-Ethyl-3-[3-(3,4,5-trimethyl-phenyl)-pyrido[2,3-b]pyrazin-6-yl]-urea]
211 °C	CCNC(=S)Nc1cnc2ccc(Nc3ccccc3O)nc2n1 [Compound 197, 1-Ethyl-3-[6-(2-hydroxy-phenylamino)-pyrido[2,3-b]pyrazin-3-yl]-thiourea]
265 °C	CCNC(=S)Nc1ccc2ncc(Nc3cc(OC)cc(OC)c3)nc2n1 [Compound 157, 1-[3-(3,5-Dimethoxy-phenylamino)-pyrido[2,3-b]pyrazin-6-yl]-3-ethyl-thiourea]
258 °C	CCNC(=S)Nc1ccc2ncc(Nc3ccc(O)c(C)c3)nc2n1 [Compound 331, 1-Ethyl-3-[3-(4-hydroxy-3-methyl-phenylamino)-pyrido[2,3-b]pyrazin-6-yl]-thiourea]
223 to 226 °C	CCCCNC(=O)Nc1cnc2ccc(-c3ccc(O)c(OC)c3)nc2n1 [Compound 631, 1-Butyl-3-[6-(4-hydroxy-3-methoxy-phenyl)-pyrido[2,3-b]pyrazin-3-yl]-urea]
305 to 308 °C	CCNC(=O)Nc1cnc2ccc(Nc3cccc(CC(=O)O)c3)nc2n1 [Compound 194, {3-[3-(3-Ethyl-ureido)-pyrido[2,3-b]pyrazin-6-ylamino]-phenyl}-acetic acid]
248 °C	COc1cc(Nc2cnc3ccc(NC(=S)NC4CC4)nc3n2)cc(OC)c1OC [Compound 707, 1-Cyclopropyl-3-[3-(3,4,5-trimethoxy-phenylamino)-pyrido[2,3-b]pyrazin-6-yl]-thiourea]
243 to 245 °C	COCCNC(=S)Nc1ccc2ncc(Nc3cc(OC)c(OC)c(OC)c3)nc2n1 [Compound 705, 1-(2-Methoxy-ethyl)-3-[3-(3,4,5-trimethoxy-phenylamino)-pyrido[2,3-b]pyrazin-6-yl]-thiourea]
238 to 241 °C	CCNC(=O)Nc1ccc2ncc(Nc3ccc4c(c3)OC(F)(F)O4)nc2n1 [Compound 42, 1-[3-(2,2-Difluoro-benzo[1,3]dioxol-5-ylamino)-pyrido[2,3-b]pyrazin-6-yl]-3-ethyl-urea]
230 °C	CCNC(=O)Nc1ccc2ncc(Nc3cccc(Oc4ccccc4)c3)nc2n1 [Compound 155, 1-Ethyl-3-[3-(3-phenoxy-phenylamino)-pyrido[2,3-b]pyrazin-6-yl]-urea]
262 °C	CCNC(=S)Nc1ccc2ncc(Nc3ccc(O)cc3)nc2n1 [Compound 161, 1-Ethyl-3-[3-(4-hydroxy-phenylamino)-pyrido[2,3-b]pyrazin-6-yl]-thiourea]
211 to 213 °C	C=CCNC(=O)Nc1cnc2ccc(-c3ccc(O)c(OC)c3)nc2n1 [Compound 18, 1-Allyl-3-[6-(4-hydroxy-3-methoxy-phenyl)-pyrido[2,3-b]pyrazin-3-yl]-urea]
166 °C	CCNC(=S)Nc1cnc2ccc(Nc3ccc(OC)c(O)c3)nc2n1 [Compound 205, 1-Ethyl-3-[6-(3-hydroxy-4-methoxy-phenylamino)-pyrido[2,3-b]pyrazin-3-yl]-thiourea]
258 to 261 °C	CNC(=S)Nc1ccc2ncc(Nc3cc(OC)c(OC)c(OC)c3)nc2n1 [Compound 692, 1-Methyl-3-[3-(3,4,5-trimethoxy-phenylamino)-pyrido[2,3-b]pyrazin-6-yl]-thiourea]
291 °C	CCNC(=O)Nc1cnc2ccc(-c3ccc(O)c(Br)c3)nc2n1 [Compound 641, 1-[6-(3-Bromo-4-hydroxy-phenyl)-pyrido[2,3-b]pyrazin-3-yl]-3-ethyl-urea]
226 to 228 °C	CCNC(=O)Nc1ccc2ncc(-c3ccccc3F)nc2n1 [Compound 103, 1-Ethyl-3-[3-(2-fluoro-phenyl)-pyrido[2,3-b]pyrazin-6-yl]-urea]
